# From PMC8163145 (Chemical Science, 2020)
# Tests used:
# LHPP [1] = conditions: pH 8.2, in the presence of 1 mM MgCl2; LHPP isolated from bovine liver; cited from earlier work
# LHPP [2] = target: T1, LHPP (Homo sapiens, UniProt Q9H008); format: biochemical
# T1 sequence (Q9H008 1-270): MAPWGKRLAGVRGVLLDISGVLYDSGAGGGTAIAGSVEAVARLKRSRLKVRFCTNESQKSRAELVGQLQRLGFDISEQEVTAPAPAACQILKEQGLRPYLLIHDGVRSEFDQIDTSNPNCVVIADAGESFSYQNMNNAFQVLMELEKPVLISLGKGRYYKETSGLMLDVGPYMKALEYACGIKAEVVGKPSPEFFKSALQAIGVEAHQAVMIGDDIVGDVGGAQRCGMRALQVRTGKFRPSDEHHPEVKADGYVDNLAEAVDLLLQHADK
# [3] = 60 °C, neutral pH; cited from earlier work
Structure (SMILES),released phosphate (LHPP activity) (LHPP [1]),"enzymatically hydrolyzed substrate (LHPP [2]; 100 μM 1a, 0.25 μg LHPP, 200 μL, after 60 minutes, background subtracted)","hydrolysis rate by LHPP (LHPP [2]; 100 μM substrate, 200 μL 50 mM Tris–HCl, 1 mM MgCl2, pH 7.8, 0.25 μg LHPP (0.037 μM))",half-life time [3]
"O=P(O)(O)NP(=O)(O)O [PNP, imidodiphosphate]",0.44 µmol/min/mg,,,
"O=P(O)(O)OP(=O)(O)O [PPi, pyrophosphate]",0.11 µmol/min/mg,,,
"N[C@@H](CCCCNP(=O)(O)O)C(=O)O [Substrate 1a, N6-phosphono-L-lysine]",,roughly 50%,0.88 µmol/min/mg,less than 1 h
